Five molecules from ChEMBL document CHEMBL1201862, “PubChem BioAssay data set” (2004) can be followed below.

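Interpolation was linear, between the two tested concentrations surrounding the appropriate level; five concentrations were tested over 48 hours in 96-well plates. The concentration for 50% growth inhibition is given as GI50.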 Activity calls are given as the source filed them. No stated cut-off is given here; in the data, active = GI50 up to about 1.1 µM and inactive = higher.

Test systems include UACC-62; HL-60; NCI-H226; HT-29; IGROV-1; ACHN; SK-MEL-28; COLO 205; NCI-H522; NCI-H23; DU-145; SF-268; NCI/ADR-RES; HCT-116; UACC-257; MDA-MB-435; K562; KM12; HCT-15; HOP-62.
What all share (assay): NCI-60 cell line screen, 48 h

For `O=C(O)CCCNc1ncc2c(n1)-c1ccccc1OC2`, the GI50 with UACC-62 was > 100 µM (inactive); in the experiment with HL-60, 30.1 µM (inactive); in the experiment on NCI-H226, > 100 µM (inactive); in the experiment with HT-29 it was > 100 µM (inactive); in the experiment on IGROV-1 it was 47.8 µM (inactive); in the experiment with ACHN it was > 100 µM (inactive). Further, the GI50 in the experiment on SK-MEL-28 was > 100 µM (inactive); in the experiment with COLO 205, > 100 µM (inactive); with NCI-H522, > 100 µM (inactive); in the experiment with NCI-H23 it was 77.4 µM (inactive); with DU-145, > 100 µM (inactive); with SF-268, > 100 µM (inactive). Besides, the GI50 in the experiment with NCI/ADR-RES, with HCT-116, in the experiment on UACC-257, with MDA-MB-435, in the experiment on K562 and with KM12 was > 100 µM (inactive) throughout. Further, the GI50 in the experiment with HCT-15 was > 100 µM; in the experiment on HOP-62, > 100 µM (inactive).
For the molecule `CCN(CC)Cc1ccccc1CC(=O)N1c2ccccc2C(=O)Nc2cccnc21`, the GI50 in the experiment with UACC-62 was > 100 µM (inactive); in the experiment on HL-60, 46 µM (inactive); in the experiment with NCI-H226, > 100 µM (inactive); in the experiment on HT-29 it was > 100 µM (inactive); in the experiment on IGROV-1, > 100 µM (inactive); with ACHN, > 100 µM (inactive). For the same molecule, the GI50 with SK-MEL-28 is > 100 µM (inactive); with COLO 205, 86.1 µM (inactive); with NCI-H522, > 100 µM (inactive); with NCI-H23, > 100 µM (inactive); in the experiment with DU-145, > 100 µM (inactive); with SF-268, > 100 µM (inactive). Also, the GI50 in the experiment on NCI/ADR-RES is 59.6 µM (inactive); in the experiment with HCT-116, 38.8 µM (inactive); with UACC-257, > 100 µM (inactive); in the experiment with MDA-MB-435 it was > 100 µM (inactive); with K562 it was 79.6 µM (inactive); in the experiment on KM12 it was > 100 µM (inactive). The GI50 in the experiment with HCT-15 is > 100 µM; in the experiment on HOP-62, 64 µM (inactive).
In the case of `C1CCC2C(C1)CCCC2NC1=NCCO1` (stereo not given), the GI50 is > 100 µM (inactive) with UACC-62; > 100 µM (inactive) in the experiment on HL-60; > 100 µM (inactive) in the experiment on NCI-H226; 35.7 µM (inactive) with HT-29; > 100 µM (inactive) with IGROV-1; > 100 µM (inactive) with ACHN. The GI50 was 76 µM (inactive) in the experiment with SK-MEL-28; > 100 µM (inactive) with COLO 205; > 100 µM (inactive) in the experiment with NCI-H522; > 100 µM (inactive) in the experiment with NCI-H23; > 100 µM (inactive) with DU-145; > 100 µM (inactive) in the experiment on SF-268. The GI50 in the experiment on NCI/ADR-RES was > 100 µM (inactive); with HCT-116, > 100 µM (inactive); in the experiment on UACC-257, 69.3 µM (inactive); in the experiment with MDA-MB-435 it was > 100 µM (inactive); in the experiment with K562, > 100 µM (inactive); in the experiment on KM12, > 100 µM (inactive). The figures for the GI50 in the experiment with HCT-15 and in the experiment with HOP-62 were > 100 µM and > 100 µM (inactive), respectively.
On to `COc1cc(C2c3cc4c(cc3OC(C)(N3CCCC3)C2C)OCO4)cc(OC)c1OC` (stereo not given), for which the GI50 in the experiment on UACC-62 was 0.373 µM (active); with HL-60, 0.182 µM (active); in the experiment on NCI-H226, 0.313 µM (active); with HT-29, 0.293 µM (active); in the experiment on IGROV-1, 0.435 µM (active); in the experiment with ACHN it was 0.815 µM (active). Besides, the GI50 in the experiment with SK-MEL-28 was 0.798 µM (active); in the experiment on COLO 205, 0.22 µM (active); in the experiment with NCI-H522 it was 0.209 µM (active); in the experiment on NCI-H23, 0.883 µM (active); with DU-145, 0.327 µM (active); in the experiment on SF-268, 0.714 µM (active). Besides, the GI50 was 0.192 µM (active) in the experiment on NCI/ADR-RES; 0.433 µM (active) in the experiment on HCT-116; 0.437 µM (active) with UACC-257; 0.128 µM (active) in the experiment on MDA-MB-435; 0.197 µM (active) with K562; 0.286 µM (active) in the experiment with KM12. For the same molecule, the GI50 in the experiment on HCT-15 was 0.472 µM; in the experiment with HOP-62 it was 0.301 µM (active).
Take `N#CC1=C(S)N(C2OC(CO)C(O)C(O)C2O)C(c2ccccc2)=CC1c1ccccc1` (stereo not given): the GI50 is 21.7 µM (inactive) with UACC-62; 40.9 µM (inactive) with HL-60; 36.2 µM (inactive) with NCI-H226; 48.9 µM (inactive) with HT-29; 46 µM (inactive) with IGROV-1; 62.1 µM (inactive) in the experiment with ACHN. Besides, the GI50 in the experiment with SK-MEL-28 is 45 µM (inactive); in the experiment with COLO 205, 44.2 µM (inactive); in the experiment with NCI-H522, 50.6 µM (inactive); in the experiment with NCI-H23, > 100 µM (inactive); in the experiment on DU-145, > 100 µM (inactive); in the experiment with SF-268, 56.5 µM (inactive). Also, the GI50 is > 100 µM (inactive) in the experiment on NCI/ADR-RES; 35.6 µM (inactive) in the experiment on HCT-116; 51.6 µM (inactive) in the experiment on UACC-257; 39.9 µM (inactive) with MDA-MB-435; 30.1 µM (inactive) in the experiment with K562; 66.1 µM (inactive) with KM12. Moreover, the GI50 with HCT-15 is 18.8 µM; with HOP-62, > 100 µM (inactive).
